Results on two compounds are retold here after patent publication US10195198B2, “Methods and compositions for treating diseases and conditions” (Afferent Pharmaceuticals Inc., priority 2014, dated 2019).

Entries after “also recorded” stand apart in the source; their conditions may differ.

Experiment [1] relates to carotid sinus nerve. Briefly: isolated carotid body/carotid sinus nerve preparation, P2X3 KO mouse (homotrimeric P2X2 mediated responses).
Experiment [2] deals with carotid sinus nerve. Kind of experiment: isolated carotid body/carotid sinus nerve preparation, P2X2 KO mouse (homotrimeric P2X3 mediated responses).
Experiment [3] concerns carotid sinus nerve. Kind of experiment: isolated carotid body/carotid sinus nerve preparation, wild-type mouse. An excerpt:
FIGS. 1A-1D show the effects of Compound A, a benzyl-diaminopyrimidine P2X3 antagonist which is seen to reduce carotid sinus nerve activity and excitatory responses to hypoxia and ATP (or analogs), in an isolated preparation of carotid body/carotid sinus nerves. […] As shown, the dual P2X3 and P2X2/3 antagonist Compound A attenuates basal tonic firing and hypoxia-induced excitation of carotid sinus afferents in an isolated carotid body preparation of mouse. […] The IC50 is in the range between 10-30 μM.

For the compound `COc1cc(Cc2cnc(N)nc2N)c(C(C)C)cc1OC` [Compound A], in the experiment on carotid sinus nerve [1], the “basal tonic firing and hypoxia or ATP-induced excitation of carotid sinus afferents” value is recorded as “fails to attenuate; also recorded: no longer sensitive to inhibition”. In addition, in the experiment on carotid sinus nerve [2] (P2X2 KO mouse isolated carotid body preparation), the “basal tonic firing and hypoxia, α,β-MeATP induced excitation of carotid sinus afferents” value is “attenuates”. In the experiment with carotid sinus nerve [2] (P2X2 KO mouse, lower concentrations effective), the “potency compared with wild type” value was “Greater potency; also recorded: more sensitively observed”. In addition, in the experiment with carotid sinus nerve [3] (Mus musculus, wild type preparations, reversible, read-out: IC50 for inhibition of the response of sinus nerve to hypoxia), the IC50 – broadly, the concentration that gives 50% inhibition – is 10 to 30 µM. Besides, the “basal tonic firing and hypoxia-induced excitation of carotid sinus afferents” value in the experiment with carotid sinus nerve [3] (wild-type mouse isolated carotid body preparation) is recorded as “attenuates; also recorded: attenuation”.
Regarding `Cc1nc(N=Nc2ccc(S(=O)(=O)O)cc2S(=O)(=O)O)c(COP(=O)(O)O)c(C=O)c1O` [PPADS], in the experiment on carotid sinus nerve [1], the “basal tonic firing and hypoxia or ATP-induced excitation of carotid sinus afferents” value is “inhibitory activity”.
